The source of these data is patent US6565864B2, “Skin care product containing retinoids and phytoestrogens in a dual compartment package” (Unilever Home & Personal Care USA, a division of Conopco, …, priority 2000, dated 2003).

SMILES strings stand for the structures. Where two headings read alike, the source gives them in different places.

One series deals with CRABP-2. Nature of the series: CRABP-2 protein expression in human adult fibroblasts (dot blot immunostaining) as a measure of retinoid activity. The series is classed as cell-based. The note with it: for CRABP-2 % as Control: control = 100%; for CRABP-2 production: human adult fibroblasts; for Synergy of phytoestrogen with retinoids (in words): soluble form, CRABP-2 in fibroblasts. The protocol:
Human adult fibroblasts obtained from sun-protected inner arm of 25-30 year […] volunteer were used in this. Cells were grown in 1:1 DMEM/Hams F12 media containing 10% FBS, maintained at 37° C. in a 5% CO2 atmosphere under normal atmosphere oxygen tension. Third passage adult fibroblasts were grown in DMEM media with 10% FBS in 12-well plates at a seeding density of 2500 cells/ml/well. The cells at 80% confluence were rinsed in serum free and phenol red free (PRF) DMEM media twice. Pre-treatment with phyto-compounds for 4 hours was conducted and then dosed with retinoids and was incubated for 48 hours. After the incubation, the wells were washed twice with 1×PBS and the cell monolayer was harvested in 100 μl cell lysis buffer (contains 1×PBS, 1% Triton X, 0.5% sodium deoxycholate, 0.1% SDS containing protease inhibitor (10 mg/ml PMSF in isopropanol, 10 μl/ml). The suspension was spun at 14000 rpm for 10 minutes, the supernatant collected and an aliquot of this supernatant was used for protein quantification. Protein concentration was determined using Pierce protein kit. The remainder of 100 μl supernatant (cell lysate) was denatured in a mixture of 40 μl sample buffer (NOVEX) and 0.5% Beta mercaptoethanol (BME) and by boiling the sample for 5 minutes.
(b) Detection of Cellular Retinoic Acid Binding Protein 2 (CRABP-2)
These proteins act in regulating the intracellular concentration of retinoids by acting as both storage or shuttle proteins in retinoid metabolism. High or low levels of retinoids cause cell damage, including cell death, therefore regulation of constant levels of retinoids and its binding proteins are very critical for cell survival. The levels of this protein are regulated by the amount of retinoic acid within the cells. Higher cellular levels of retinoids increase the expression of CRABP-2. Therefore, the amount of this protein in the cells, is a measure of the retinoid activity of the cells. Skin cells contain high levels of CRABP-2 both in the epidermis and the dermis. CRABP-2 response to retinoid administration in fibroblasts in vitro is used as a reproducible measure of retinoid bioactivity that predict human skin responses. […] Increase in CRABP-2 is also associated with increased epidermal differentiation, and dermal retinoid action. Therefore, in these studies CRABP-2 expression of fibroblasts was used as a measure of retinoid activity leading to increased epidermal differentiation (skin conditioning and dry skin benefit) and dermal collagen and extracellular matrix synthesis (anti-aging, anti-wrinkling benefits).
To measure the levels of CRABP-2 in the fibroblasts, the equal amount of protein of cell supernatant were loaded onto nitrocellulose blots in a dot blot apparatus as instructed by the manufacturer, and immunostaining was carried out using monoclonal antibodies to CRABP-2 according to standard procedures. The CRABP-2 protein band was visualized in the Dot Blots using the chemiluminescence system obtained from Santa Cruz Biotechnology (SantaCruz, Calif.). The bands in the film were quantitated by dens tometric scanning, the data from the triplicate samples were calculated as % of control and expressed in the following tables as % increase over control (with control as 100%) +/−SD triplicates.

A short description of series [1]: Stability of retinol in aqueous ethanol in the presence of phytoestrogenic flavonoids (OD 360 nm). It is filed as physicochemical. Particulars: for Retinol degraded: 0.001 %. The protocol: Retinol was dissolved as a 10% solution in aqueous ethanol (1:1 water:ethanol). This solution was diluted to 0.001%, or approximately 30 μM). This solution gave an OD of about 0.35 absorption unit at 360 nm in a 96 well plate spectrophotometer.
Aqueous ethanolic stock solutions of the genistein, daidzein were prepared as 0.1%, 0.01% or 0.001%. To 200 μl of 0.001% retinol solution in a 96 well plate was added 20 μl of the flavonoid (i.e. 1-10 dilution) giving a final flavonoid concentration of 0.01, 0.001 and 0.0001%. The plates were mixed and an initial OD reading was taken at 360 nm. The plates were incubated at room temperature in the dark for up to 2 days and subsequent readings were taken at 8, 24 and 48 hours. The OD readings at these time points were normalized to the 0 time point reading. The retinol stability was expressed as % of retinol (OD reading) at 0 time.
The following tables show the effect of genistein and daidzein on destabilizing retinol. The experiment was done as described in methods section. The OD readings from duplicate measurements were averaged and given here.

[2] abbreviates: 100 nM retinoid alone, 48 hours.

Turning to `CCCCCCCCCCCCCCCC(=O)OC/C=C(C)/C=C/C=C(C)/C=C/C1=C(C)CCCC1(C)C` [Retinyl Palmitate], the “CRABP-2 % as Control” value with CRABP-2 (100 nM retinoid alone) is 434 +/− 177%. Further, in the series with CRABP-2 (setting [2]), the CRABP-2 production was 1.26 +/− 0.51.

`O=c1c(-c2ccc(O)cc2)coc2cc(O)cc(O)c12` [Genistein]: the “CRABP-2 stimulation (in words)” value with CRABP-2 (1 μM alone, delivered in DMSO: ethanol) is “stimulated CRABP-2 significantly”. In the series with CRABP-2 (1 μM phytoestrogen alone), the “CRABP-2 % as Control” value is 655 +/− 247% and the CRABP-2 production is reported as 1.9 +/− 0.71. In addition, the “Synergy of phytoestrogen with retinoids (in words)” value in the series on CRABP-2 is reported as “stimulate retinoid activity in a synergistic manner”. For the same compound, the “Effect of the flavonoid on retinol stability (in words)” value in series [1] (0.0001-0.01% flavonoid with 0.001% retinol) was “marked increases in the instability of retinol”.

As to `O=c1c(-c2ccc(O)cc2)coc2cc(O)ccc12` [Daidzein], in the series on CRABP-2 (1 μM phytoestrogen alone), the “CRABP-2 % as Control” value is recorded as 513 +/− 227% and the CRABP-2 production was 1.49 +/− 0.66. For the same compound, the “Synergy of phytoestrogen with retinoids (in words)” value with CRABP-2 was “stimulate retinoid activity in a synergistic manner”. In addition, the “Effect of the flavonoid on retinol stability (in words)” value in series [1] is given as “marked increases in the instability of retinol”.

`CC1=C(/C=C/C(C)=C/C=C/C(C)=C/C(=O)O)C(C)(C)CCC1` [Retinoic acid, reference compound]: the “CRABP-2 % as Control” value was 335 +/− 162% in the series with CRABP-2 (1 nM retinoid alone) and 428 +/− 101% in the series on CRABP-2 (10 nM retinoid alone). For the same compound, the CRABP-2 production in the series on CRABP-2 (1 nM retinoid alone, 48 hours) is 0.97 +/− 0.47; with CRABP-2 (10 nM retinoid alone, 48 hours) it was 1.24 +/− 0.29.

For `CC1=C(/C=C/C(C)=C/C=C/C(C)=C/CO)C(C)(C)CCC1` [Retinol], the Retinol degraded in series [1] (8 h) is 8%; in series [1] (24 h), 14%; in series [1] (48 h), 19%.

On to `CCCCC/C=C\C/C=C\CCCCCCCC(=O)OC/C=C(C)/C=C/C=C(C)/C=C/C1=C(C)CCCC1(C)C` [Retinyl Linoleate], for which the “CRABP-2 % as Control” value in the series on CRABP-2 (100 nM retinoid alone) was 181 +/− 110%. Also, the CRABP-2 production in the series with CRABP-2 (setting [2]) is recorded as 0.52 +/− 0.3.

Consider `CC(=O)OC/C=C(C)/C=C/C=C(C)/C=C/C1=C(C)CCCC1(C)C` [Retinyl Acetate], for which the “CRABP-2 % as Control” value in the series on CRABP-2 (100 nM retinoid alone) is listed as 209 +/− 118%. Further, the CRABP-2 production in the series with CRABP-2 (setting [2]) is given as 0.60 +/− 0.32.
